Results reported in ChEMBL document CHEMBL5390237, “Discovery of Selective Histone Deacetylase 1 and 2 Inhibitors: Screening of a Focused Library Constructed by Click Chemistry, Kinetic Binding Analysis, and Biological Evaluation” (J Med Chem, 2023).

Biological target: Histone deacetylase 2 (Homo sapiens, UniProt Q92769)
Assay: Inhibition of full-length recombinant human C-terminal GST tagged HDAC2 expressed in Sf9 insect cells using aminoluciferin peptide substrate at 100 nM preincubated for 3 hrs followed by substrate addition and measured after 30 mins by HDAC-Glo I/II chemiluminescence assay
Conditions: time 3.5 hrs

Chain of Histone deacetylase 2 (Q92769 whole entry): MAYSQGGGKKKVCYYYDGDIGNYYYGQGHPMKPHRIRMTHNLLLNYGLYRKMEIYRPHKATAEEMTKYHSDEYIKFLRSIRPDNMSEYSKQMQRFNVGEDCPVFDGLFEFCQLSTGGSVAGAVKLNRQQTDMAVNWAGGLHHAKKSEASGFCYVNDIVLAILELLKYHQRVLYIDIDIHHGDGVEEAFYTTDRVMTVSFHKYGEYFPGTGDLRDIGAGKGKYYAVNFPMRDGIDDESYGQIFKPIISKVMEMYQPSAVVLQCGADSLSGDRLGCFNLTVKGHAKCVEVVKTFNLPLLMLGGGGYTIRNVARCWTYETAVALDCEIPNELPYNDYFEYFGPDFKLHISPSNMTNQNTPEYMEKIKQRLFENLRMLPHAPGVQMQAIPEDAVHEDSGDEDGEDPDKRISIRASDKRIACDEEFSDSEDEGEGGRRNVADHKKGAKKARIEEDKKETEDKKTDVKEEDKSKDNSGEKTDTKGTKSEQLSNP

SMILES	inhibition [%]
Nc1ccc(-c2ccccc2)cc1NC(=O)CCc1cn(CCc2ccc(C(F)(F)F)cc2)nn1	0
COc1ccccc1CCn1cc(-c2ccc(C(=O)Nc3cc(-c4cccs4)ccc3N)s2)nn1	20
Nc1ccc(-c2ccccc2)cc1NC(=O)CCc1cn(CCC2CCCC2)nn1	0
CCc1ccc(Cn2cc(C(=O)Nc3cc(-c4ccccc4)ccc3N)nn2)cc1	0
Nc1ccc(-c2ccsc2)cc1NC(=O)CCc1cn(CCCCCC(=O)O)nn1	0
Cc1cccc(C)c1NC(=O)Cn1cc(C(=O)Nc2cc(-c3cccs3)ccc2N)nn1	21
COc1ccc(-n2cc(C(=O)Nc3cc(-c4ccc(F)cc4)ccc3N)nn2)cc1	16
Nc1ccc(-c2cccs2)cc1NC(=O)c1ccc(-c2cn(CC(=O)Nc3ccc(F)cc3)nn2)cc1	50
Nc1ccc(-c2ccc(F)cc2)cc1NC(=O)CCc1cn(Cc2cccc(C(=O)O)c2)nn1	0
Nc1ccc(-c2ccc(F)cc2)cc1NC(=O)c1cn(Cc2ccc(C(=O)O)cc2)nn1	65
Nc1ccc(-c2cccs2)cc1NC(=O)c1ccc(-c2cn(CCCc3ccccc3)nn2)cc1	2
Nc1ccc(-c2cccs2)cc1NC(=O)c1ccc(-c2cn(CCc3ccc(C(F)(F)F)cc3)nn2)cc1	0
Nc1ccc(-c2cccs2)cc1NC(=O)c1cccc(-c2cn(CCc3cccc(C(F)(F)F)c3)nn2)c1	0
Nc1ccc(-c2cccs2)cc1NC(=O)CCc1cn(CCc2ccccn2)nn1	7
Nc1ccc(-c2cccs2)cc1NC(=O)CCc1cn(Cc2cccc(-c3ccccc3)c2)nn1	0
Nc1ccc(-c2ccccc2)cc1NC(=O)CCc1cn(CCc2ccc(Cl)cc2)nn1	0
Nc1ccc(-c2cccs2)cc1NC(=O)CCc1cn(CCc2ccc(C(=O)O)cc2)nn1	35
Nc1ccc(-c2ccsc2)cc1NC(=O)c1cn(Cc2cccc(C(=O)O)c2)nn1	0
Nc1ccc(-c2ccsc2)cc1NC(=O)CCc1cn(CCc2ccc(F)cc2)nn1	21
Nc1ccc(-c2cccs2)cc1NC(=O)c1ccc(-c2cn(CCc3ccc(C(=O)O)cc3)nn2)s1	55
Cc1cccc(CCn2cc(CCC(=O)Nc3cc(-c4ccc(F)cc4)ccc3N)nn2)c1	36
Nc1ccc(-c2cccs2)cc1NC(=O)CCc1cn(CCc2c[nH]c3ccccc23)nn1	18
Nc1ccc(-c2ccc(F)cc2)cc1NC(=O)c1cn(CCc2ccsc2)nn1	1

SMILES	inhibition [%]
Nc1ccc(-c2cccnc2)cc1NC(=O)CCc1cn(CCCCCCCC(=O)O)nn1	0
Nc1ccc(-c2ccc(F)cc2)cc1NC(=O)CCc1cn(Cc2nc3ccccc3[nH]2)nn1	32
Nc1ccc(-c2cccs2)cc1NC(=O)c1cccc(-c2cn(CC3CCCCC3)nn2)c1	0
Nc1ccc(-c2cccs2)cc1NC(=O)c1cccc(-c2cn(CCc3ccc(C(=O)O)cc3)nn2)c1	14
Nc1ccc(-c2ccccc2)cc1NC(=O)CCc1cn(CCc2ccccc2[N+](=O)[O-])nn1	13
Nc1ccc(-c2cccs2)cc1NC(=O)c1ccc(-c2cn(CCCCC(=O)O)nn2)cc1	36
Nc1ccc(-c2cccnc2)cc1NC(=O)CCc1cn(CCc2ccc(Cl)cc2)nn1	7
Nc1ccc(-c2cccs2)cc1NC(=O)c1cccc(-c2cn(-c3ccc(I)cc3)nn2)c1	7
Nc1ccc(-c2cccs2)cc1NC(=O)CCc1cn(CCCCCCCC(=O)O)nn1	4
Nc1ccc(-c2cccs2)cc1NC(=O)c1ccc(-c2cn(CC(=O)Nc3ccc(F)cc3)nn2)s1	23
Nc1ccc(-c2ccccc2)cc1NC(=O)c1cn(CCc2cccc(F)c2)nn1	0
Nc1ccc(-c2ccccc2)cc1NC(=O)c1cn(CCc2ccccc2)nn1	12
Nc1ccc(-c2ccccc2)cc1NC(=O)CCc1cn(Cc2cccc(C(=O)O)c2)nn1	0
Nc1ccc(-c2ccccc2)cc1NC(=O)CCc1cn(CC(=O)c2ccccc2)nn1	18
COc1ccc(Cn2cc(-c3ccc(C(=O)Nc4cc(-c5cccs5)ccc4N)cc3)nn2)cc1	4
Nc1ccc(-c2cccs2)cc1NC(=O)c1ccc(-c2cn(CCc3ccc([N+](=O)[O-])cc3)nn2)s1	23
Nc1ccc(-c2cccnc2)cc1NC(=O)CCc1cn(CCc2cccc(Cl)c2)nn1	30
Nc1ccc(-c2ccc(F)cc2)cc1NC(=O)c1cn(Cc2ccc3ccccc3c2)nn1	8
COc1ccccc1CCn1cc(C(=O)Nc2cc(-c3ccc(F)cc3)ccc2N)nn1	5
Nc1ccc(-c2cccs2)cc1NC(=O)CCc1cn(-c2cccc3ccccc23)nn1	0
Nc1ccc(-c2ccccc2)cc1NC(=O)c1cn(CCc2cccc(C(F)(F)F)c2)nn1	0
Nc1ccc(-c2cccnc2)cc1NC(=O)CCc1cn(Cc2cccc(-c3ccccc3)c2)nn1	0
Nc1ccc(-c2ccsc2)cc1NC(=O)c1cn(C[S+]([O-])c2ccccc2)nn1 (stereo not drawn)	10

SMILES	inhibition [%]
Nc1ccc(-c2ccsc2)cc1NC(=O)c1cn(-c2ccc(I)cc2)nn1	0
Nc1ccc(-c2ccc(F)cc2)cc1NC(=O)c1cn(CCCCCCCC(=O)O)nn1	29
Nc1ccc(-c2cccs2)cc1NC(=O)c1cn(CC(=O)Nc2ccc(F)cc2)nn1	0
Nc1ccc(-c2cccs2)cc1NC(=O)c1cccc(-c2cn(-c3ccc(Br)cc3)nn2)c1	0
COc1ccc(-n2cc(C(=O)Nc3cc(-c4ccccc4)ccc3N)nn2)cc1	2
Nc1ccc(-c2ccc(F)cc2)cc1NC(=O)c1cn(Cc2cc3ccccc3s2)nn1	7
Nc1ccc(-c2cccs2)cc1NC(=O)c1ccc(-c2cn(CCc3ccccc3)nn2)s1	40
Nc1ccc(-c2ccsc2)cc1NC(=O)c1cn(CCCCCC(=O)O)nn1	0
COc1ccc(Cn2cc(-c3ccc(C(=O)Nc4cc(-c5cccs5)ccc4N)s3)nn2)cc1	27
Nc1ccc(-c2cccs2)cc1NC(=O)c1cccc(-c2cn(CCc3cccc([N+](=O)[O-])c3)nn2)c1	4
Nc1ccc(-c2ccc(F)cc2)cc1NC(=O)c1cn(CCCCC(=O)O)nn1	22
Nc1ccc(-c2cccs2)cc1NC(=O)CCc1cn(CC(=O)c2ccccc2)nn1	13
Nc1ccc(-c2cccs2)cc1NC(=O)c1ccc(-c2cn(CCc3cccc([N+](=O)[O-])c3)nn2)s1	23
Nc1ccc(-c2ccsc2)cc1NC(=O)c1cn(CCc2cccc(C(F)(F)F)c2)nn1	0
Nc1ccc(-n2cc(C(=O)Nc3cc(-c4cccs4)ccc3N)nn2)cc1	10
Nc1ccc(-n2cc(C(=O)Nc3cc(-c4ccc(F)cc4)ccc3N)nn2)cc1	42
Nc1ccc(-c2cccs2)cc1NC(=O)c1cn(CCCc2ccccc2)nn1	9
Nc1ccc(-c2ccsc2)cc1NC(=O)CCc1cn(Cc2ccc(OC(F)(F)F)cc2)nn1	0
Nc1ccc(-c2ccc(F)cc2)cc1NC(=O)CCc1cn(CCc2cccc3ccccc23)nn1	0
Nc1ccc(-c2cccs2)cc1NC(=O)c1cn(CCc2ccccc2C(F)(F)F)nn1	5
Nc1ccc(-c2cccs2)cc1NC(=O)c1cn(CCc2c[nH]c3ccccc23)nn1	14
Nc1ccc(-c2cccs2)cc1NC(=O)c1ccc(-c2cn(Cc3ccc(-c4ccccc4)cc3)nn2)cc1	0
